In paper PMC4319760, “Rapid Identification of α-Glucosidase Inhibitors from Phlomis tuberosa by Sepbox Chromatography and Thin-Layer Chromatography Bioautography” (PLoS ONE, 2015):

How the values were obtained:
[1] = target: α-Glucosidase; test: α-Glucosidase inhibitory activity assay (4-nitrophenyl α-glucopyranoside substrate, absorbance at 405 nm); type: biochemical, Saccharomyces cerevisiae; settings: 0.26 U/mL enzyme, pH 6.8, 37°C; mean ± SEM, triplicate
Experimental: After incubation at 37°C for 10 min, 100 μL of the substrate, 4-nitrophenyl α-glucopyranoside (5 mM, in potassium phosphate buffer) was added to the mixture. The enzymatic reaction was allowed to proceed at 37°C for 20 min and stopped by addition of 100 μL of 0.2 M NaCO3. 4-Nitrophenol absorptions were subsequently measured at 405 nm using a spectrophotometer. […] The IC50 value was defined as the concentration of α-glucosidase inhibitor required to inhibit 50% of α-glucosidase activity under the assay conditions. Experiments were performed in triplicate, and all results are expressed as mean ± SEM.

[2] = set-up: method as in PMID 23850835, PMID 18460146; settings: previous toxicity studies; ref [23]–[25]; cited from earlier work
[3] = tested on: α-D-glucosidase; test: TLC bioautographic assay for α-glucosidase inhibitors; type: biochemical; settings: S1 Fig, subfractions 20 μL, ethyl acetate fraction 5 mg/mL, acarbose 1 mg/mL, 4 μL, qualitative
From the text: In the present work, a high-performance thin-layer chromatographic system (CAMAG, Switzerland) equipped with an automatic TLC Sampler 4 and a Reprostar 3 with a 12-bit charge-coupled device camera for photo-documentation and controlled by WinCATS-4 software was used. […] After migration of the samples with appropriate solvents or no migration, the plates were inspected under ultraviolet light (366 nm) and then subjected to bioautographic assay as described below.
TLC bioautographic assay: TLC bioautographic assay was carried out as described previously in terms of reaction principle and response system but with slight modifications. First, the concentration of α-glucosidase was reduced from 10 U/mL to 2.5 U/mL. Second, the plate was dipped into the reaction solutions (including the enzyme solution, the substrate solution, and the coloration solution), instead of being sprayed with them. Third, the conditions for enzyme incubation were changed from room temperature for 60 min to 37°C for 30 min. Briefly, α-D-glucosidase (750 U) was dissolved in 75 mL of buffer solution (10.25 g of sodium acetate in 250 mL with addition of 0.1 M acetic acid to pH 7.5). The stock solution was kept at -20°C. A stock solution of 25 mL was diluted with the same buffer solution to 100 mL as the enzyme solution, and a substrate solution of 1 mg/mL 2-naphthyl-α-D-glucopyranoside in ethanol was prepared. […]

Row | Structure (SMILES) | IC50 [1] [mM] | toxicity [2] | α-glucosidase inhibitory activity in bioautographic chromatogram (white spots), screening [3]
1 | CC1(C(=O)O)CCCC2(C)c3cc4c(c(O)c3CCC12)COC4=O (centres unmarked) [Compound 2, 14-hydroxyabieta-8,11,13-triene-17-oic-12-carboxy-13-(1-hydroxy-1-methylethyl)-lactone] | 0.624 ± 0.026 |  | 
2 | CCCCC/C=C/c1c(O)cc(CC=C(C)C)c(O)c1C=O [Compound 18, tetrahydroauroglaucin] | 0.283 ± 0.013 |  | 
3 | CC1=C(CCc2ccoc2)C2(C)CCCC(C)(CO)C2CC1 (centres unmarked) [Compound 4, 15,16-eposy-8,13(16),14-labdatrien-19-ol] | 0.067 ± 0.003 |  | 
4 | COc1ccc(-c2cc(=O)c3c(O)cc(OC4OC(COC5OC(C)C(O)C(O)C5O)C(O)C(O)C4O)cc3o2)cc1 (centres unmarked) [Compound 10, acacetin-7-rutinoside] |  | nontoxic | 
5 | CCCCCc1cc2c(C=O)c(O)c(CC=C(C)C)cc2o1 [Compound 20, 2-(2′,3-epoxy-1′-heptenyl)-6-hydroxy-5-(3″-methyl-2″-butenyl) benzaldehyde] | 0.371 ± 0.015 |  | 
6 | C[C@@H]1O[C@@H](O[C@@H]2[C@@H](O)[C@H](OCCc3ccc(O)c(O)c3)O[C@H](CO)[C@H]2OC(=O)/C=C/c2ccc(O)c(O)c2)[C@H](O)[C@H](O)[C@H]1O [Compound 7, acteoside] | 0.518 ± 0.017 | nontoxic | 
7 | CCC/C=C/C=C/c1c(O)cc(CC=C(C)C)c(O)c1C=O [Compound 19, dihydroauroglaucin] | 0.255 ± 0.013 |  | 
8 | C[C@H]1O[C@H](O[C@H]2[C@H](O)[C@@H](O)[C@@H](O[C@H]3[C@H](O)[C@@H](O)C(O)O[C@@H]3CO)O[C@@H]2CO)[C@H](O)[C@@H](O)[C@@H]1N[C@H]1C=C(CO)[C@@H](O)[C@H](O)[C@H]1O (some centres unmarked) [Acarbose, acarbose] |  |  | produced white spots
9 | CC1OC(Oc2c(-c3ccc(O)c(O)c3)oc3cc(O)cc(O)c3c2=O)C(O)C(O)C1O (centres unmarked) [Compound 12, quercetin-3-rhamnoside] | 0.562 ± 0.021 | nontoxic | 
10 | O=c1cc(-c2ccc(O)c(O)c2)oc2cc(O)cc(O)c12 [Compound 11, luteolin] | 0.428 ± 0.018 |  | 
11 | CC1=C(CCc2ccoc2)C2(C)CCCC(C)(C)C2CC1 (centres unmarked) [Compound 6, 15,16-eposy-8,13(16),14-labdatrien] | 0.21 ± 0.01 |  | 
12 | C[C@@H]1O[C@@H](O[C@@H]2[C@@H](O)[C@H](OCCc3ccc(O)c(O)c3)O[C@H](COC(=O)/C=C/c3ccc(O)c(O)c3)[C@H]2O)[C@H](O)[C@H](O)[C@H]1O [Compound 8, isoacteoside] | 1.2 ± 0.032 |  | 
13 | CC1(C(=O)O)CCCC2(C)c3c(C=O)c4c(c(O)c3CCC12)COC4=O (centres unmarked) [Compound 1, 14-hydroxyabieta-8,11,13-triene-11-carbaldehyde-18-oic-12-carboxy-13-(1-hydroxy-1-methylethyl)-lactone] | 0.379 ± 0.016 |  | 
14 | CCCCCCCc1c(O)cc(CC=C(C)C)c(O)c1C=O [Compound 17, flavoglaucin] | 0.229 ± 0.017 |  | 
15 | CC1=C(CCc2ccoc2)C2(C)CCCC(C)(C(=O)O)C2CC1 (centres unmarked) [Compound 5, phlomisoic acid] | 0.482 ± 0.019 |  | 
